System: C. elegans transcriptome
Experiment: Transcriptome profiling (Affymetrix microarrays), differentially expressed genes
Assay type: in vivo, Caenorhabditis elegans
Method in brief: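 Wild-type young-adult C. elegans (~6,000 per condition, triplicate) were exposed to each drug at 100 µM or to DMSO for 8 h without pathogen. TRIzol/RNeasy RNA was profiled on Affymetrix arrays. Fold changes were normalized to each gene's mean across conditions and clustered by Euclidean distance with average linkage.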

[1] = Downregulated genes, Affy_ID 171867_x_at

## CN(C)/N=N/c1ccc(-c2cn(Cc3ccccc3)cn2)cc1 [LK38]
Affy_ID 171867_x_at, listed under genes C09B9.6, F36H12.7, K07F5.1, R05F9.13, R13H9.2, R13H9.4, T13F2.10, T13F2.11, Y59E9AR.1, Y59E9AR.7, ZK354.1, downregulated genes
  Fold Change: 0.2521
Affy_ID 176276_s_at, listed under gene Y69A2AR.25 (LK34) or Y69A2AR.12 (LK38), downregulated genes
  Fold Change: 0.3902
Downregulated genes, Affy_ID 171849_x_at
  Fold Change, gene ZK525.1: 0.4368
[1]
  Fold Change, gene ZK354.10: 0.2521
  Fold Change, gene ZK354.11: 0.2521
  Fold Change, gene ZK354.4: 0.2521
  Fold Change, gene ZK354.5: 0.2521
Downregulated genes, Affy_ID 172214_x_at
  Fold Change, gene ZK525.1: 0.3013
Downregulated genes, Affy_ID 172381_x_at
  Fold Change, gene ZK484.8: 0.4248
Downregulated genes, Affy_ID 172798_x_at
  Fold Change, gene ZK546.3: 0.1961
Downregulated genes, Affy_ID 172900_x_at
  Fold Change, gene ZK546.6: 0.1945
Downregulated genes, Affy_ID 172922_x_at
  Fold Change, gene ZK354.4: 0.2136
Downregulated genes, Affy_ID 172925_x_at
  Fold Change, gene ZK354.11: 0.2447
Downregulated genes, Affy_ID 172928_x_at
  Fold Change, gene ZK354.5: 0.2421
Downregulated genes, Affy_ID 179513_at
  Fold Change, gene ZK550.2: 0.2459
Downregulated genes, Affy_ID 182193_at
  Fold Change, gene ZK484.5: 0.3776
Downregulated genes, Affy_ID 194066_s_at
  Fold Change, gene ZK666.7: 0.2101
Gene C05C12.3, Affy_ID 183355_s_at, downregulated genes
  Fold Change: 0.3153
Gene C08E3.1, Affy_ID 172309_x_at, downregulated genes
  Fold Change: 0.1357
Gene C08E3.13, Affy_ID 172565_x_at, downregulated genes
  Fold Change: 0.1172
Gene C08F11.13, Affy_ID 175229_at, downregulated genes
  Fold Change: 0.2733
Gene C08F11.13, Affy_ID 185001_at, downregulated genes
  Fold Change: 0.09464
Gene C09B9.6, Affy_ID 172903_x_at, downregulated genes
  Fold Change: 0.2435
Gene C14C6.2, Affy_ID 183566_at, downregulated genes
  Fold Change: 0.3131
Gene R01E6.3, Affy_ID 189628_at, downregulated genes
  Fold Change: 0.3184
Gene R03E9.1, Affy_ID 193723_s_at, downregulated genes
  Fold Change: 0.2835
Gene R04B5.9, Affy_ID 191440_at, downregulated genes
  Fold Change: 0.3161
Gene R05F9.13, Affy_ID 172714_x_at, downregulated genes
  Fold Change: 0.2707
Gene R05F9.3, Affy_ID 172725_x_at, downregulated genes
  Fold Change: 0.4569
Gene R05F9.8, Affy_ID 172724_x_at, downregulated genes
  Fold Change: 0.2625
Gene R12C12.1, Affy_ID 190616_at, downregulated genes
  Fold Change: 0.3782
Gene R13H9.2, Affy_ID 172771_x_at, downregulated genes
  Fold Change: 0.2091
Gene R13H9.4, Affy_ID 172770_x_at, downregulated genes
  Fold Change: 0.2077
Gene T01C3.4, Affy_ID 188106_at, downregulated genes
  Fold Change: 0.02377
Gene T02B11.3, Affy_ID 174051_s_at, downregulated genes
  Fold Change: 0.3852
Gene T07C4.4, Affy_ID 178149_s_at, downregulated genes
  Fold Change: 0.3385
Gene T07G12.5, Affy_ID 188496_s_at, downregulated genes
  Fold Change: 0.1128
Gene T08B1.6, Affy_ID 192296_at, downregulated genes
  Fold Change: 0.264
Gene T08B2.12, Affy_ID 184685_s_at, downregulated genes
  Fold Change: 0.1122
Gene T09F5.9, Affy_ID 188947_at, downregulated genes
  Fold Change: 0.335
Gene T13F2.10, Affy_ID 172906_x_at, downregulated genes
  Fold Change: 0.282
Gene T13F2.11, Affy_ID 172905_x_at, downregulated genes
  Fold Change: 0.2555
Gene T14B4.4, Affy_ID 190598_at, downregulated genes
  Fold Change: 0.3119
Gene T15B7.9, Affy_ID 182858_at, downregulated genes
  Fold Change: 0.3485
Gene T20D4.11, Affy_ID 184438_at, downregulated genes
  Fold Change: 0.08285
Gene T22H2.6, Affy_ID 180962_s_at, downregulated genes
  Fold Change: 0.4528
Gene T23B7.1, Affy_ID 172486_x_at, downregulated genes
  Fold Change: 0.4388
Gene T23B12.8, Affy_ID 184855_at, downregulated genes
  Fold Change: 0.1808
Gene T23F4.1, Affy_ID 180223_s_at, downregulated genes
  Fold Change: 0.03953
Gene T23F4.3, Affy_ID 179815_at, downregulated genes
  Fold Change: 0.03894
Gene T27A10.7, Affy_ID 186153_s_at, downregulated genes
  Fold Change: 0.1891
Gene T27E4.7, Affy_ID 173756_at, downregulated genes
  Fold Change: 0.3486
Gene T27E4.7, Affy_ID 173757_s_at, downregulated genes
  Fold Change: 0.3375
Gene T28H11.6, Affy_ID 172704_x_at, downregulated genes
  Fold Change: 0.3336
Gene W04B5.2, Affy_ID 180561_at, downregulated genes
  Fold Change: 0.445
Gene W07B8.5, Affy_ID 191887_s_at, downregulated genes
  Fold Change: 0.336
Gene Y40D12A.2, Affy_ID 191017_at, downregulated genes
  Fold Change: 0.3923
Gene Y43F8B.2, Affy_ID 172568_x_at, downregulated genes
  Fold Change: 0.4361
Gene Y44A6C.1, Affy_ID 182843_at, downregulated genes
  Fold Change: 0.4118
Gene Y45F10A.5, Affy_ID 184558_at, downregulated genes
  Fold Change: 0.1874
Gene Y46G5A.11, Affy_ID 184716_at, downregulated genes
  Fold Change: 0.4392
Gene Y48A6B.7, Affy_ID 193926_at, downregulated genes
  Fold Change: 0.1656
Gene Y48A6B.7, Affy_ID 193927_s_at, downregulated genes
  Fold Change: 0.1715
Gene Y51A2D.13, Affy_ID 192992_at, downregulated genes
  Fold Change: 0.2626
Gene Y51H4A.7, Affy_ID 180145_s_at, downregulated genes
  Fold Change: 0.364
Gene Y59E9AR.7, Affy_ID 172629_x_at, downregulated genes
  Fold Change: 0.2101
Gene Y59H11AM.1, Affy_ID 172113_x_at, downregulated genes
  Fold Change: 0.292
Gene Y71H2AL.1, Affy_ID 177190_at, downregulated genes
  Fold Change: 0.3481
Gene Y105C5A.13, Affy_ID 172627_x_at, downregulated genes
  Fold Change: 0.08697
Gene Y105C5A.24, Affy_ID 187121_at, downregulated genes
  Fold Change: 0.3583
Gene Y119D3B.13, Affy_ID 175112_s_at, downregulated genes
  Fold Change: 0.1938
Gene Y119D3B.13, Affy_ID 176131_at, downregulated genes
  Fold Change: 0.2809
Gene ZC416.6, Affy_ID 188470_s_at, downregulated genes
  Fold Change: 0.4112
Gene ZK112.1, Affy_ID 175995_at, downregulated genes
  Fold Change: 0.3894
Gene ZK131.4, Affy_ID 190307_s_at, downregulated genes
  Fold Change: 0.355
Gene ZK131.7, Affy_ID 172871_x_at, downregulated genes
  Fold Change: 0.3915
Gene ZK354.1, Affy_ID 172927_x_at, downregulated genes
  Fold Change: 0.2349
Gene ZK1248.4, Affy_ID 172734_x_at, downregulated genes
  Fold Change: 0.2783
Gene ZK1248.6, Affy_ID 172887_x_at, downregulated genes
  Fold Change: 0.1775
Gene ZK1251.6, Affy_ID 172938_x_at, downregulated genes
  Fold Change: 0.2909
Upregulated gene Y19D10A.9, Affy_ID 180592_s_at
  Fold Change: 3.58
Upregulated gene Y22F5A.4, Affy_ID 182989_at
  Fold Change: 2.438
Upregulated gene Y22F5A.5, Affy_ID 183028_s_at
  Fold Change: 6.765
Upregulated gene Y37D8A.6, Affy_ID 181665_at
  Fold Change: 2.8924
Upregulated gene Y37E3.16, Affy_ID 173045_at
  Fold Change: 4.522
Upregulated gene Y38E10A.14, Affy_ID 175449_s_at
  Fold Change: 26.3223
Upregulated gene Y39G10AR.10, Affy_ID 176486_at
  Fold Change: 4.567
Upregulated gene Y40B10A.6, Affy_ID 176851_at
  Fold Change: 66.4819
Upregulated gene Y41C4A.16, Affy_ID 194230_x_at
  Fold Change: 2.891
Upregulated gene Y41D4B.10, Affy_ID 176055_at
  Fold Change: 10.2277
Upregulated gene Y41D4B.16, Affy_ID 176044_at
  Fold Change: 4.224
Upregulated gene Y45F10C.4, Affy_ID 186062_at
  Fold Change: 3.88
Upregulated gene Y45G12C.2, Affy_ID 187084_at
  Fold Change: 31.3356
Upregulated gene Y46C8AL.2, Affy_ID 172184_x_at
  Fold Change: 22.6612
Upregulated gene Y46G5A.4, Affy_ID 187467_s_at
  Fold Change: 2.088
Upregulated gene Y47D3B.10, Affy_ID 175803_at
  Fold Change: 15.9397
Upregulated gene Y47D7A.1, Affy_ID 176618_at
  Fold Change: 2.89
Upregulated gene Y47H9C.5, Affy_ID 191065_s_at
  Fold Change: 3.429
Upregulated gene Y51H7C.1, Affy_ID 186349_at
  Fold Change: 10.9287
Upregulated gene Y53G8B.2, Affy_ID 184714_s_at
  Fold Change: 6.111
Upregulated gene Y54G2A.6, Affy_ID 173144_at
  Fold Change: 2.211
Upregulated gene Y55B1AR.1, Affy_ID 187047_at
  Fold Change: 6.195
Upregulated gene Y57A10A.23, Affy_ID 187073_at
  Fold Change: 4.734
Upregulated gene Y66D12A.24, Affy_ID 175124_at
  Fold Change: 2.206
Upregulated gene Y77E11A.2, Affy_ID 187013_at
  Fold Change: 2.874
Upregulated gene Y105C5B.15, Affy_ID 186799_at
  Fold Change: 3.08
Upregulated gene Y105C5B.9, Affy_ID 185162_at
  Fold Change: 4.4277
Upregulated gene Y106G6D.6, Affy_ID 185498_at
  Fold Change: 6.567
Upregulated gene ZC155.1, Affy_ID 173222_s_at
  Fold Change: 2.443
Upregulated gene ZK455.1, Affy_ID 193891_at
  Fold Change: 2.648
Upregulated gene ZK455.7, Affy_ID 193924_at
  Fold Change: 3.307
Upregulated gene ZK512.7, Affy_ID 186714_s_at
  Fold Change: 3.427
Upregulated gene ZK637.13, Affy_ID 173475_s_at
  Fold Change: 2.9018
Upregulated gene ZK770.3, Affy_ID 180366_s_at
  Fold Change: 3.303
Upregulated gene ZK899.2, Affy_ID 178376_s_at
  Fold Change: 3.754

Reference: PMC7845594, “Novel Immune Modulators Enhance Caenorhabditis elegans Resistance to Multiple Pathogens” (mSphere, 2021)
